From the NIST ThermoML archive (doi:10.1016/j.fluid.2010.08.022)

Details: 101.33 kPa; for speed of sound: Sing-around technique in a fixed-path interferometer; for mass density: Vibrating tube method; for viscosity: 368.15 K, Visco Elite L rheometer

CCCCCCCC/C=C\CCCCCCCC(=O)[O-].OCC[NH2+]CCO [bis(2-hydroxyethyl)ammonium oleate]
Liquid crystal of unknown type
Details | mass density [kg/m3] | speed of sound [m/s]
310.91 K | 956.801 | 1479.3
311.16 K | 956.637 | 1478.5
311.41 K | 956.474 | 1477.7
311.66 K | 956.311 | 1476.9
311.91 K | 956.146 | 1476.1
312.16 K | 955.984 | 1475.3
312.41 K | 955.821 | 1474.5
312.66 K | 955.658 | 1473.7
312.91 K | 955.495 | 1472.9
313.16 K | 955.331 | 1472.1
313.4 K | 955.169 | 1471.3
313.66 K | 955.006 | 1470.5
313.91 K | 954.842 | 1469.7
314.16 K | 954.679 | 1468.9
314.41 K | 954.514 | 1468.2
314.66 K | 954.352 | 1467.4
314.91 K | 954.186 | 1466.6
315.16 K | 954.024 | 1465.8
315.41 K | 953.862 | 1465
315.65 K | 953.699 | 1464.2
315.91 K | 953.533 | 1463.4
316.16 K | 953.369 | 1462.7
316.41 K | 953.207 | 1461.9
316.66 K | 953.043 | 1461.1
316.91 K | 952.88 | 1460.3
317.16 K | 952.716 | 1459.5
317.41 K | 952.551 | 1458.8
317.66 K | 952.388 | 1458
317.91 K | 952.225 | 1457.2
318.16 K | 952.061 | 1456.4
318.41 K | 951.897 | 1455.6
318.66 K | 951.733 | 1454.9
318.91 K | 951.57 | 1454.1
319.16 K | 951.406 | 1453.3
319.41 K | 951.243 | 1452.5
319.66 K | 951.078 | 1451.7
319.91 K | 950.913 | 1451
320.16 K | 950.75 | 1450.2
320.41 K | 950.587 | 1449.4
320.66 K | 950.422 | 1448.6
320.91 K | 950.258 | 1447.8
321.16 K | 950.094 | 1447.1
321.41 K | 949.931 | 1446.3
321.66 K | 949.766 | 1445.5
321.91 K | 949.603 | 1444.7
322.16 K | 949.437 | 1444
322.41 K | 949.275 | 1443.2
322.65 K | 949.109 | 1442.4
322.91 K | 948.946 | 1441.6
323.16 K | 948.781 | 1440.8
323.41 K | 948.617 | 1440.1
323.66 K | 948.452 | 1439.3
323.91 K | 948.289 | 1438.5
324.16 K | 948.125 | 1437.8
324.41 K | 947.96 | 1437
324.66 K | 947.796 | 1436.2
324.9 K | 947.631 | 1435.4
325.16 K | 947.466 | 1434.7
325.41 K | 947.302 | 1433.9
325.66 K | 947.136 | 1433.2
325.91 K | 946.972 | 1432.4
326.16 K | 946.806 | 1431.6
326.41 K | 946.644 | 1430.8
326.66 K | 946.479 | 1430.1
326.91 K | 946.315 | 1429.3
327.16 K | 946.149 | 1428.5
327.41 K | 945.984 | 1427.8
327.66 K | 945.82 | 1427
327.91 K | 945.656 | 1426.2
328.16 K | 945.489 | 1425.5
328.41 K | 945.323 | 1424.7
328.66 K | 945.159 | 1423.9
328.91 K | 944.994 | 1423.2
329.16 K | 944.829 | 1422.4
329.41 K | 944.663 | 1421.6
329.66 K | 944.498 | 1420.8
329.91 K | 944.332 | 1420.1
330.16 K | 944.168 | 1419.3
330.41 K | 944.002 | 1418.5
330.66 K | 943.835 | 1417.8
330.91 K | 943.671 | 1417
331.16 K | 943.506 | 1416.3
331.4 K | 943.341 | 1415.5
331.66 K | 943.175 | 1414.7
331.91 K | 943.009 | 1414
332.16 K | 942.844 | 1413.2
332.41 K | 942.679 | 1412.5
332.66 K | 942.512 | 1411.7
332.91 K | 942.347 | 1410.9
333.16 K | 942.18 | 1410.2
333.41 K | 942.013 | 1409.4
333.66 K | 941.847 | 1408.7
333.91 K | 941.682 | 1407.9
334.16 K | 941.516 | 1407.2
334.41 K | 941.349 | 1406.4
334.66 K | 941.183 | 1405.6
334.91 K | 941.018 | 1404.9
335.16 K | 940.851 | 1404.1
335.41 K | 940.685 | 1403.4
335.66 K | 940.519 | 1402.6
335.91 K | 940.352 | 1401.8
336.16 K | 940.185 | 1401.1
336.41 K | 940.019 | 1400.3
336.66 K | 939.852 | 1399.6
336.91 K | 939.686 | 1398.8
337.16 K | 939.519 | 1398
337.4 K | 939.352 | 1397.3
337.66 K | 939.185 | 1396.5
337.91 K | 939.017 | 1395.8
338.16 K | 938.852 | 1395
338.41 K | 938.684 | 1394.3
338.66 K | 938.517 | 1393.5
338.91 K | 938.351 | 1392.8
339.16 K | 938.182 | 1392
339.41 K | 938.014 | 1391.2
339.66 K | 937.846 | 1390.5
339.91 K | 937.68 | 1389.7
340.15 K | 937.513 | 1389
340.41 K | 937.345 | 1388.2
340.66 K | 937.177 | 1387.5
340.91 K | 937.009 | 1386.7
341.16 K | 936.844 | 1386
341.41 K | 936.674 | 1385.2
341.65 K | 936.507 | 1384.5
341.91 K | 936.339 | 1383.8
342.16 K | 936.171 | 1383
342.41 K | 936.003 | 1382.3
342.66 K | 935.836 | 1381.5
342.9 K | 935.668 | 1380.8
343.15 K | 935.491 | 1380.1

Details | viscosity [mPa·s]
Liquid | 37.2
Liquid crystal of unknown type | 37.2
